Experimental data as given in US11567011B2, “System and method for drug detection in exhaled breath” (Sensa Bues AB, priority 2009, dated 2023).

Experiments:
[1] = Example 2: methadone in exhaled breath collected on Empore C18 disc, UPLC-MS/MS; conditions: all 13 studied patients
[2] = Example 1: amphetamine and methamphetamine in expired air collected on SPE cartridge, SRM UPLC-MS/MS; conditions: all 12 studied patients

## CCC(=O)C(CC(C)N(C)C)(c1ccccc1)c1ccccc1 (centres unmarked) [methadone]
[1]
  detection in the sampled exhaled breath: detected

## CN[C@@H](C)Cc1ccccc1 [methamphetamine]
[2]
  detection in the expired air sample: detected
